From US20090169573A1, “T-Cell Stimulatory Peptides From The Melanoma-Associated Chondroitin Sulfate Proteoglycan And Their Use” (priority 2004, published 2009)

Tests used:
CD4+ T-cell clone 3 = test: IFN-γ production of CD4+ T-cell clone 3 on peptide-pulsed autologous EBV-B cells (ELISA); assay type: cell-based, human
HLA-DR 11 = test: HLA restriction of clone 3: blocking antibodies and EBV-B cell lines with different HLA class II molecules; assay type: cell-based, human; settings: peptide 5 μg/ml, IFN-γ production
Protocol: FIG. 14: Autologous EBV-B cells (15,000) pulsed with 16-mer MCSP peptide (aa 1281-1296 (SEQ ID NO:48), 5 μg/ml) were used as stimulator cells in the presence of different blocking antibodies. All antibodies were used at a final concentration of 5 μg/ml each.
FIG. 15: Several EBV-B cell lines with different HLA class II molecules were pulsed with peptide MCSP1281-1296 (SEQ ID NO:48; 5 μg/ml) and tested for recognition (at 15,000 cells per well) by the CD4^+ T cell clone (4,000 cells per well).
(§1) 8. Determination of HLA restriction element utilized by MCSP-specific CD4^+ T-cell clone 25 and 3: To analyze the HLA restriction of CD4^+ T-cell clone 25 and 3, three monoclonal antibodies directed against anti-DR (L243; BD Biosciences, San Jose, USA), anti-DQ (CSPVL3; Immunotech) or anti-DP (B7/21; BD Biosciences, San Jose, USA) were used to test which one inhibited the recognition of antigen-presenting cells by the clone. First EBV-B cells (1.5×10^4 per round-bottomed microtiter plate well) were incubated for 1 h at 37° C., 8% CO2 in the presence of the peptide (SEQ ID NO:9 for clone 25, SEQ ID NO:48 for clone 3). The antibodies were added at a concentration of 5 ng/ml. The CD4^+ T-cell clone 25 or 3 was then added at 4×10^3 per well.

CD4+ T-cells = test: CD4+ T-cell induction with peptide-loaded dendritic cells, IFN-γ ELISA of microcultures; assay type: cell-based, human
CD8+ T-cells = test: CD8+ T-cell induction with TAT-MCSP-peptide-loaded dendritic cells, IFN-γ ELISA of microcultures; settings: donor 11325; long TAT-MCSP-peptide 10 μM; not with control peptide; FIG. 18
Protocol: After 3 weekly restimulations microcultures were tested for their IFN-γ production when stimulated with autologous EBV-B cells loaded with the TAT-MCSP peptide (SEQ ID NO:54) or a control peptide.
Aliquots of approximately 4,000 CD8^+ T-cells from each 96-well microculture were co-incubated with 15,000 stimulator cells and after 20 h the IFN-γ concentration in the supernatant was measured by ELISA. […] Bars represent standard deviations.
In order to isolate MCSP specific CD8^+ T cells, DCs were derived from monocytes of healthy donors using IL-4 and GM-CSF and loaded with the long TAT-MCSP-peptide of SEQ ID NO:54 at 20 μg/ml overnight so that potential T-cell epitopes within this peptide could be processed and presented by the cell. DCs were matured 6 h after peptide-loading by a cytokine cocktail (IL-1β, IL-6, TNF-α, PGE2) as described in Example 3 (b). Autologous CD8^+ T-cells were stimulated with protein-loaded mature DCs in 96-well-plates on the next day (FIG. 17). […]
Autologous EBV-B cells (5×10^5) were incubated for 18-20 h at 37° C. in the presence of 10 μg/ml or 20 μg/ml (compare Figure legends) of the MCSP peptide or an irrelevant control peptide as a negative control. […] After 18-20 h, supernatants were harvested and assessed for IFN-γ content using an ELISA assay with reagents from Medgenix Diagnostics-Biosource (Fleurus, Belgium). […]

CD4+ T-cell clone 25 = assay type: cell-based, human; settings: for recognition by clone 25 of overlapping 16-mer peptides: IFN-γ ELISA
HLA-DR11 = test: HLA restriction of clone 25: blocking antibodies and EBV-B cell lines with different HLA class II molecules; assay type: cell-based, human; settings: IFN-γ production
Protocol: FIG. 6: Autologous EBV-B cells (1.5×10^4) pulsed with 1 μM of the 16-mer MCSP peptide […] (SEQ ID NO:9) were used as stimulator cells in the presence of different blocking antibodies (anti-DR, anti-DQ or anti-DP). Also a control with no antibody (no Ab) was set up. All antibodies were used at a final concentration of 5 μg/ml each.
FIG. 7: 1.5×10^4 cells of several EBV-B cell lines (LP2-, LB1981-, R12-, PV6-, AC 42- and 4800-EBV) with different HLA class II molecules (HLA-DR11 positive or HLA-DR11 negative) were pulsed/loaded for 1 h with MCSP peptide […] (SEQ ID NO:9) (1 μM, white bar) and tested for recognition by the CD4^+ T cell clone. As control, the cells were pulsed in the absence of protein (black spotted bar).
as §1
9. Determination of HLA-DR restriction element utilized by MCSP-specific CD4^+ T-cell clone 25: It was determined that cytokine secretion by the CD4^+ T-cell clone 25 occurred in response to EBV-B cells pulsed/loaded with MCSP-derived peptides restricted to HLA-DR. To further define the HLA-restriction element utilized by clone 25, additional EBV-B cell lines were used for peptide presentation as described above. In particular LP2-, LB1981-, R12-, PV6-, AC 42- and 4800-EBV which have with different HLA class II molecules (HLA-DR11 positive or HLA-DR11 negative) were used. They were pulsed/loaded for 1 h with 1 μM MCSP peptide […] […]

[1] = autologous EBV-B cells pulsed 1 μM, 1 h, FIG. 4

PPSAGYLVMVSRGALA [SEQ ID NO:42]
efficiency of stimulation of clone 3 among overlapping peptides (CD4+ T-cell clone 3; autologous EBV-B cells pulsed 5 μg/ml, 1 h, FIG. 12): most efficiently | recognition by clone 3 of peptide-loaded autologous EBV-B cells in presence of anti-HLA-DR antibody (HLA-DR 11; FIG. 14): abolished | recognition by clone 3 of peptide-loaded autologous EBV-B cells in presence of antibodies against HLA-DP or HLA-DQ (HLA-DR 11; FIG. 14): no influence | presentation of peptide to clone 3 by EBV-B cell lines with different HLA class II typings (HLA-DR 11; FIG. 15): only those expressing HLA-DR 11 were able to present the peptide to clone 3

YARAAARQARAPPADIVFSVKSPPSAGYLVMVSRGALADEPP [SEQ ID NO:54]
number of microcultures with peptide-specific CD4+ T-cells generated (CD4+ T-cells; DCs loaded with long TAT-MCSP-peptide at 20 μg/ml overnight, donor 11325): 3 | number of peptide-specific T-cell clones generated (CD4+ T-cells; from microculture F1, limiting dilution): 3 | Interferon-γ production of clone F1/3 after stimulation with peptide-loaded autologous EBV-B-cells (CD4+ T-cell clone 3; long TAT-MCSP-peptide 10 μM overnight, not with EBV-B-cells with or without control peptide, FIG. 11): specific Interferon-γ production | IFN-γ production of CD8+ T-cells from microcultures after stimulation with peptide-loaded autologous EBV-B-cells (CD8+ T-cells): specific IFN-γ production

GYLVMVSRGALA [SEQ ID NO:46]
recognition of truncated peptides by clone 3 (CD4+ T-cell clone 3; truncated peptides derived from SEQ ID NO:42, 5 μg/ml, IFN-γ ELISA, FIG. 13): shortest peptide efficiently recognized

YARAAARQARA [SEQ ID NO:53, TAT PDT variant peptide, reference compound]
recognition by clone 3 of overlapping peptides of the 42-mer (CD4+ T-cell clone 3; autologous EBV-B cells pulsed 5 μg/ml, 1 h, IFN-γ ELISA, FIG. 12): not

LAQGSAMPILPANLSVETNAVGQDVSVLFRVTGALQFGELQK [SEQ ID NO:3]
number of microcultures with peptide-specific CD4+ T-cells generated (CD4+ T-cells; DCs loaded with the 42 mer overnight (50 μg/ml), matured by cytokine cocktail): 2 | number of peptide-specific T-cell clones obtained (CD4+ T-cells; from microculture C2, limiting dilution): 3 | IFN-γ production of clone C2/25 after stimulation with peptide-loaded autologous EBV-B-cells (CD4+ T-cell clone 25; 42 mer 5 μM overnight, not with EBV-B-cells with or without control peptide, FIG. 3): specific IFN-γ production

VGQDVSVLFRVTGALQ [SEQ ID NO:9]
efficiency of stimulation of clone 25 among overlapping 16-mer peptides (CD4+ T-cell clone 25; [1]): most efficiently | recognition by clone 25 of overlapping 16-mer peptides (CD4+ T-cell clone 25; [1]): recognized | peptide concentration found optimal to achieve CD4+ T-cell stimulation (CD4+ T-cell clone 25; titration experiments, clone 25): 2 µg/mL | presentation of peptide to clone 25 by EBV-B cell lines with different HLA class II typings (HLA-DR11; LP2-, LB1981-, R12-, PV6-, AC 42- and 4800-EBV pulsed 1 μM 1 h, FIG. 7): only those expressing HLA-DRB1*11 (PV6-, AC 42- and 4800-EBV) were able to present the peptide to clone 25 | recognition by clone 25 of peptide-loaded autologous EBV-B cells in presence of anti-HLA-DR antibody (HLA-DR11; peptide 1 μM, FIG. 6): completely abolished | recognition by clone 25 of peptide-loaded autologous EBV-B cells in presence of antibodies against HLA-DP or HLA-DQ (HLA-DR11; peptide 1 μM, FIG. 6): no influence

ETNAVGQDVSVLFRVT [SEQ ID NO:8]
recognition by clone 25 of overlapping 16-mer peptides (CD4+ T-cell clone 25; [1]): recognized
